Laboratory results reported in the NIST ThermoML archive (doi:10.1016/j.tca.2010.05.012).

Test: molar heat capacity at constant pressure
Conditions: Liquid, Large sample (1 g) DSC

CC(C)O [propan-2-ol]
molar heat capacity at constant pressure [J/K/mol]
Conditions	100 kPa	20000 kPa	40000 kPa
253.15 K	129.4	126.1	125.8
258.15 K	130.6	128.3	127.3
263.15 K	132.6	130.7	129.2
268.15 K	135	133.4	131.5
273.15 K	138	136.3	134
278.15 K	141.4	139.4	136.8
283.15 K	145.1	142.6	140
288.15 K	148.9	146	143.3
293.15 K	152.9	149.6	146.9
298.15 K	157	153.3	150.7
303.15 K	161.1	157.1	154.7
308.15 K	165	161.1	159
313.15 K	168.6	165	163.3
318.15 K	171.9	169.1	167.8
323.15 K	174.9	173.2	172.4
